Laboratory results reported in the NIST ThermoML archive (doi:10.1021/je7003066).
± gives the expanded uncertainty stated by the source.

Key:
[1] = 101.33 kPa, Liquid; for viscosity: Capillary tube (Ostwald / Ubbelohde) method
[2] = molar heat capacity at constant pressure; conditions: 101.33 kPa, Liquid, Small sample (50 mg) DSC
[3] = refractive index (Na D-line) (dimensionless); conditions: 101.33 kPa, Liquid, Standard Abbe refractometry

CC1CCCO1 (configuration not stated) [2-methyltetrahydrofuran]
Conditions	mass density, [1] [kg/m3]	molar heat capacity at constant pressure, [2] [J/K/mol]	refractive index, [3]	viscosity, [1] [mPa·s]
293.15 K	852.95 ± 0.68	155.3 ± 3.1	1.4085 ± 0.0008	0.492 ± 0.04
303.15 K	842.8 ± 0.7	158.6 ± 3.2	1.4017 ± 0.0007	0.443 ± 0.04
313.15 K	832.38 ± 0.72	162.1 ± 3.2	1.3959 ± 0.0007	0.416 ± 0.04
